Data as given in ChEMBL document CHEMBL1142948, “Somatostatin receptor-binding peptides suitable for tumor radiotherapy with Re-188 or Re-186. Chemistry and initial biological studies” (J Med Chem, 2007).

Columns and labels:
Somatostatin receptor [1] = test: Displacement of [125I-Tyr-11]-SRIF from SSTR of human NCI-H69 cell membranes
Somatostatin receptor [2] = test: Displacement of [125I]SRIF-14 from SSTR of rat AR42J cell membranes; design: species or system Membrane; details: ar-42j

Row | SMILES | IC50 (Somatostatin receptor [1]) | IC50 (Somatostatin receptor [2])
1 | C[C@@H](O)[C@H](NC(=O)[C@H](CS)NC(=O)[C@H](Cc1ccc(N)cc1)NC(=O)[C@@H](N)CNC(=O)CSCC[C@H]1C(=O)N[C@@H](Cc2ccc(O)cc2)C(=O)N[C@H](Cc2c[nH]c3ccccc23)C(=O)N[C@@H](CCCCN)C(=O)N[C@@H]([C@@H](C)O)C(=O)N[C@@H](Cc2ccccc2)C(=O)N1C)C(=O)O | 0.64 nM | –
2 | C[C@@H](O)[C@H](NC(=O)CSCC[C@H]1C(=O)N[C@@H](Cc2ccc(O)cc2)C(=O)N[C@H](Cc2c[nH]c3ccccc23)C(=O)N[C@@H](CCCCN)C(=O)N[C@@H]([C@@H](C)O)C(=O)N[C@@H](Cc2ccccc2)C(=O)N1C)C(=O)NCC(=O)NCC(=O)N[C@@H](CS)C(N)=O | 1.6 nM | –
3 | C[C@@H](O)[C@@H]1NC(=O)[C@H](CCCCN)NC(=O)[C@H](Cc2c[nH]c3ccccc23)NC(=O)[C@H](Cc2ccc(O)cc2)NC(=O)[C@@H](CCS)NC(=O)[C@H](Cc2ccccc2)N(C)C1=O | – | 23.7 nM
4 | C[C@@H](O)[C@@H]1NC(=O)[C@H](CCCCN)NC(=O)[C@@H](Cc2c[nH]c3ccccc23)NC(=O)[C@H](Cc2ccc(O)cc2)NC(=O)[C@H](CCSCC(=O)NC[C@H](N)C(=O)N[C@@H](CO)C(=O)N[C@@H](CS)C(=O)N[C@H](CO)[C@@H](C)O)N(C)C(=O)[C@H](Cc2ccccc2)NC1=O | 1.6 nM | –
5 | CC(C)[C@@H]1NC(=O)[C@H](CCCCN)NC(=O)[C@H](Cc2c[nH]c3ccccc23)NC(=O)[C@H](Cc2ccc(O)cc2)NC(=O)[C@@H](CCS)N(C)C(=O)[C@H](Cc2ccccc2)NC1=O | – | 0.7 nM
6 | CC(C)[C@@H]1NC(=O)[C@H](CCCCN)NC(=O)[C@H](Cc2c[nH]c3ccccc23)NC(=O)[C@H](Cc2ccc(O)cc2)NC(=O)[C@@H](Cc2ccccc2)N(C)C(=O)[C@H](CCS)NC1=O | – | 1.5 nM
7 | C[C@@H](O)[C@@H]1NC(=O)[C@H](CCCCN)NC(=O)[C@H](Cc2c[nH]c3ccccc23)NC(=O)[C@H](Cc2ccc(O)cc2)NC(=O)[C@@H](CCS)N(C)C(=O)[C@H](Cc2ccccc2)NC1=O | – | 0.1 nM
8 | C[C@@H](O)[C@@H]1NC(=O)[C@H](CCCCN)NC(=O)[C@@H](Cc2c[nH]c3ccccc23)NC(=O)[C@H](Cc2ccc(O)cc2)NC(=O)[C@H](CCSCC(=O)NC[C@H](N)C(=O)N[C@@H](CCCCN)C(=O)N[C@@H](CS)C(=O)N[C@H](CO)[C@@H](C)O)N(C)C(=O)[C@H](Cc2ccccc2)NC1=O | 0.35 nM | –
9 | C[C@@H](O)[C@H](NC(=O)[C@H](CS)NC(=O)[C@H](Cc1ccc(N)cc1)NC(=O)[C@@H](N)CNC(=O)CSCC[C@H]1C(=O)N[C@@H](Cc2ccc(O)cc2)C(=O)N[C@H](Cc2c[nH]c3ccccc23)C(=O)N[C@@H](CCCCN)C(=O)N[C@@H]([C@@H](C)O)C(=O)N[C@@H](Cc2ccccc2)C(=O)N1C)C(=O)N[C@@H](CO)C(=O)O | 0.2 nM | –
10 | C[C@@H](O)[C@@H]1NC(=O)[C@H](CCCCN)NC(=O)[C@H](Cc2c[nH]c3ccccc23)NC(=O)[C@H](Cc2ccc(O)cc2)NC(=O)[C@@H](Cc2ccccc2)N(C)C(=O)[C@H](CCS)NC1=O | – | 0.4 nM
11 | C[C@@H](O)[C@@H]1NC(=O)[C@H](CCCCN)NC(=O)[C@@H](Cc2c[nH]c3ccccc23)NC(=O)[C@H](Cc2ccc(O)cc2)NC(=O)[C@H](CCSCC(=O)NC[C@H](N)C(=O)N[C@@H](Cc2ccc(N)cc2)C(=O)N[C@@H](CS)C(=O)N[C@H](CO)[C@@H](C)O)N(C)C(=O)[C@H](Cc2ccccc2)NC1=O | 0.5 nM | –
